Assay results from ChEMBL document CHEMBL1201862, “PubChem BioAssay data set” (2004).
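All cell lines were grown in 96-well plates and treated with compound for 48 hours. GI50 marks 50% less growth.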 Active and inactive are the calls of the source. Cut-off read from the data, not from the text of the source: active = GI50 up to about 1.1 µM and inactive = higher.

Tests used:
Test in all cases: NCI-60 cell line screen, 48 h
LXFL 529 = tested on: LXFL 529
DMS-273 = tested on: DMS-273
DLD-1 = tested on: DLD-1
XF498 = tested on: XF498
HOP-18 = tested on: HOP-18
KM-20L2 = tested on: KM-20L2
SNB-78 = tested on: SNB-78
DMS-114 = tested on: DMS-114
RXF 631 = tested on: RXF 631

Measured: GI50

O=C1C2ON3c4ccccc4C(=O)C3(c3ccccc3)C2C(=O)N1c1ccccc1 (configuration not stated)
inactive: LXFL 529 > 100 µM | DMS-273 > 100 µM | DLD-1 > 100 µM | XF498 > 100 µM | HOP-18 > 100 µM | KM-20L2 > 100 µM | SNB-78 > 100 µM

CC[n+]1c(/C=C/c2cc(C(=O)OC)n3c2sc2ccccc23)sc2ccccc21
inactive: LXFL 529 13.8 µM | DMS-273 17.6 µM | XF498 13.3 µM | KM-20L2 17.8 µM | DMS-114 19.2 µM

O=c1ccccc2cccc(O)c12
inactive: LXFL 529 > 100 µM | DMS-273 > 100 µM | DLD-1 > 100 µM | XF498 > 100 µM | HOP-18 > 100 µM | KM-20L2 > 100 µM | SNB-78 > 100 µM | RXF 631 > 100 µM | DMS-114 > 100 µM

C=CC1=C(C)/C(=C/C2=NC(=C\c3[nH]c(CC4NC(=O)C(C)/C4=C\C)c(C)c3CCC(=O)O)/C(CC(=O)O)=C2C)NC1=O (configuration not stated)
inactive: LXFL 529 > 100 µM | DLD-1 > 100 µM | XF498 > 100 µM | HOP-18 > 100 µM | KM-20L2 > 100 µM | SNB-78 > 100 µM | RXF 631 > 100 µM | DMS-114 > 100 µM

COc1cc(C2C(Cl)C(=O)N2NC(=O)c2ccc(N)cc2)ccc1O (configuration not stated)
inactive: LXFL 529 16.6 µM | DMS-273 47.5 µM | DLD-1 29.4 µM | XF498 31.3 µM | KM-20L2 63.7 µM | SNB-78 44.2 µM

Cc1ccc(NC(=O)/C(=N/NC(=O)C[N+](C)(C)C)c2nc3ccccc3nc2O)cc1
inactive: LXFL 529 > 100 µM | DMS-273 > 100 µM | DLD-1 > 100 µM | HOP-18 > 100 µM | KM-20L2 > 100 µM | SNB-78 > 100 µM | RXF 631 > 100 µM | DMS-114 > 100 µM

COC(=O)[C@]12CSCN1C(=O)C(C(C)=O)=NN2C(=O)[C@](OC)(c1ccccc1)C(F)(F)F
inactive: LXFL 529 > 100 µM | DMS-273 > 100 µM | XF498 > 100 µM | KM-20L2 > 100 µM | SNB-78 > 100 µM | DMS-114 > 100 µM

CN1C(c2ccccc2)CC(O)CC1c1ccccc1 (configuration not stated)
inactive: LXFL 529 > 100 µM | DMS-273 > 100 µM | DLD-1 > 100 µM | KM-20L2 > 100 µM | SNB-78 > 100 µM | DMS-114 > 100 µM

Cc1cc2c(c(C(N)=O)c1C)-c1cccc(Cl)c1C2=O
inactive: LXFL 529 > 100 µM | DMS-273 > 100 µM | DLD-1 > 100 µM | XF498 > 100 µM | KM-20L2 > 100 µM | SNB-78 > 100 µM | RXF 631 > 100 µM | DMS-114 > 100 µM

O=C(Nc1ccc(Cl)cc1)/C(Cc1cccc[n+]1[O-])=N\Nc1ccc([N+](=O)[O-])cc1[N+](=O)[O-]
inactive: LXFL 529 > 100 µM | DMS-273 > 100 µM | DLD-1 > 100 µM | KM-20L2 > 100 µM | SNB-78 > 100 µM | RXF 631 > 100 µM | DMS-114 > 100 µM

COc1ccc(OCC(=O)O)c2c1CCC(C)C2=O (configuration not stated)
inactive: DMS-273 > 100 µM | DLD-1 > 100 µM | XF498 > 100 µM | HOP-18 94.6 µM | KM-20L2 > 100 µM | SNB-78 > 100 µM | RXF 631 > 100 µM | DMS-114 > 100 µM

CCOC(=O)C(=O)Nc1c(N(CC)CC)n2ccccc2nc1=O
inactive: LXFL 529 > 100 µM | DMS-273 > 100 µM | DLD-1 > 100 µM | XF498 > 100 µM | KM-20L2 > 100 µM | SNB-78 > 100 µM | RXF 631 > 100 µM | DMS-114 > 100 µM

On1c(-c2ccccc2)c(-c2ccccc2N2CCCC2)c2ccccc21
inactive: DMS-273 > 100 µM | DLD-1 > 100 µM | XF498 > 100 µM | HOP-18 > 100 µM | KM-20L2 > 100 µM | SNB-78 > 100 µM | DMS-114 47.2 µM

CN(C)c1ccc(/C=N/C23CC4CC(CC(C4)C2)C3)cc1
inactive: DMS-273 > 100 µM | KM-20L2 > 100 µM | SNB-78 > 100 µM | DMS-114 > 100 µM
